Test results: EP0642351B1, “NEW PHARMACEUTICAL USES OF KRILL ENZYMES” (PHAIRSON MEDICAL, INC., priority 1992, dated 1993)
Read-outs that look alike come from different tables or passages of the source.

Columns and labels:
[1] = test system: cell linjes, HIV-I infected to 40-60%; assay: Example 39 - Cell viability (tox.) in HIV-contaminated cell lines, in vitro; type: cell-based
Protocol: (§1) This study was carried out at the Swedish National Bacterological Laboratory (SBL). Multi-Protein was compared to AZT and Foscarnet. All preparations were tested at dilutions from undiluted to 10^-5 (highest concentration for Multi-Protein was 5 mg/ml). The preparations were added to the cell linjes, HIV-I infected to 40-60%, under identical and standardized conditions.
(§2) Control: 50% infected cells. Cell toxicity and percentage of infected cells measured by immunofluorescence.
(§3) Control: 50% infected cells. Cell toxicity and percentage of infected cells measured by immanofluorescence.

[2] = as above; type: cell-based
Protocol: as §1, §2, §3

[3] = test system: primary and secondary liver cancer; conditions: phase II study, Japan; T. Taguchi et al; cited from earlier work
Yoshida Sarcoma = conditions: cited from earlier work
[4] = test system: mice with P388 murine leukemia; assay: Toxicity on mice with s.c. implanted P388 murine leukemia, i.p. daily during 9 consecutive days; type: in vivo; conditions: 9 days
Protocol: It may be worth mentioning that the highest dose of PHIM (20 mg/kg) is far higher than any of the curing doses used in any of the clinical examples which have been reported earlier in this description.

With `Cc1cn([C@H]2C[C@H](N=[N+]=[N-])[C@@H](CO)O2)c(=O)[nH]c1=O` [AZT] the “effect on the cells in the cultures” value [1] was “all cells in the cultures were attacked and killed” and the viability [2] was 100%.

In the case of `COc1cccc2c1C(=O)c1c(O)c3c(c(O)c1C2=O)C[C@@](O)(C(=O)CO)C[C@@H]3O[C@H]1C[C@H](N)[C@H](O)[C@H](C)O1` [Adriamycin], the “response rate (CR and PR)” value [3] is given as 9.5%.

In the case of `N.N.[Cl][Pt][Cl]` [Cisplatin], the “tumour cells not killed” value (Yoshida Sarcoma; cells removed from the tumour and cultured) is listed as 53%.

In the case of `COc1cccc2c1C(=O)c1c(O)c3c(c(O)c1C2=O)C[C@@](O)(C(=O)CO)C[C@@H]3O[C@H]1C[C@H](N)[C@H](O)[C@H](C)O1` [DOX, doxorubicin], the Toxic death ([4]; Dose 1.25 mg/kg i.p. daily) is reported as 0/6, the Toxic death ([4]; Dose 2.5 mg/kg i.p. daily) is reported as 6/6 and the “Body weight change” value ([4]; Dose 5 mg/kg i.p. daily) is reported as -2.3 g. The Toxic death ([4]; Dose 5 mg/kg i.p. daily) was 6/6.

For `O=C(O)P(=O)(O)O` [Foscarnet], the “effect on the cells in the cultures” value ([1]; at low dilutions) was “all cells in the cultures were attacked and killed” and the viability ([2]; Trial 1, moi 0.4, Multi-Protein: deformed cells, read-out: Cell viability (tox.)) was 100%.

In the case of `CO[C@@]12[C@H](COC(N)=O)C3=C(C(=O)C(C)=C(N)C3=O)N1C[C@@H]1N[C@@H]12` [Mitomycin C], the side effect profile (Yoshida Sarcoma; 0.5 mg/kg as well as lower doses) is given as “loss of body weight, hair loss, decreased leucocytes and chronic diarrhoea”, the “effect on Yoshida Sarcoma resistant to Mitomycin C” value (Yoshida Sarcoma; 0.5 mg/kg or even higher doses) is given as “no effects could be detected” and the “efficacy calculated as 30 days of survival of the rats” value (Yoshida Sarcoma; non-resistant Yoshida Sarcoma, doses up to 0.5 mg/kg) is given as ~100%. The “response rate (CR and PR)” value [3] was 20%.
